Earlier results as cited in patent publication US20050123607A1, “Pharmaceutical formulation of valaciclovir” (priority 2003, published 2005).

What was measured:
[1] = oral administration
[2] = especially in its salt form

absorption from the gastrointestinal tract / bioavailability (in words) [1]: much improved bioavailability | solubility (in words) [2]: very soluble
SMILES: CC(C)[C@H](N)C(=O)OCCOCn1cnc2c(=O)[nH]c(N)nc21 [valaciclovir]
